Calls of active or inactive are those of the source. The rule behind the calls is not given here.

The test system of one test is Hepatocyte. Description: Inhibition of glucagon-stimulated glucose production in rat hepatocytes at 280 uM. The format is functional.
What is called inhibition is the percentage by which the read-out fell short of the control. High values mean a response far below the control, low ones a response near the control. `COc1cc2c(c(/C=C/c3cccc4ccccc34)c1C(=O)O)C(=O)c1c(O)cccc1C2=O` came in with an inhibition at 280 µM of 40%.

For another test, the target named is T1, Glucose-6-phosphate exchanger SLC37A4 (Homo sapiens) (UniProt O43826).
T1 sequence (whole entry): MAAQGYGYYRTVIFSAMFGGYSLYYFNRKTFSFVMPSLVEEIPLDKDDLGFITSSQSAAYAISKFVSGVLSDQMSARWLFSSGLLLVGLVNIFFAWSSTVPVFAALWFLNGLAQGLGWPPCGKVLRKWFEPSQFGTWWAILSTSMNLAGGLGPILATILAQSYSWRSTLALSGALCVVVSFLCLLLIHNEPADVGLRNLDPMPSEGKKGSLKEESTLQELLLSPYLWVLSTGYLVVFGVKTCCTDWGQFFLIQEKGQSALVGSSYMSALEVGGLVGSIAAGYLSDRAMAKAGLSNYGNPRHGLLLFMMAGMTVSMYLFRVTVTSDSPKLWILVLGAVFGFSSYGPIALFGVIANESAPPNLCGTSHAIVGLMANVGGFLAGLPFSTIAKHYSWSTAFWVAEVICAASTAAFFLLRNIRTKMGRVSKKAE
Description: (§1) Inhibition of glucose 6 phosphate translocase 1.
As to `Cc1c(C(=O)O)c(O)cc2c1C(=O)c1c(O)cccc1C2=O`, the result was inactive.

A further test addresses T2, Glucose-6-phosphate exchanger SLC37A4 (Homo sapiens, UniProt O43826).
T2 sequence (O43826 whole entry): T1 sequence (whole entry)
Described as §1.
The IC50 is the point on the concentration scale where inhibition reaches its midpoint. Turning to `COc1cc2c(c(Cc3ccccc3)c1C(=O)O)C(=O)c1c(O)cccc1C2=O`, half-maximal inhibition (IC50) required 20 µM.

As to `O=C1c2cccc(O)c2C(=O)c2c1cc(O)c1c2CC(c2cccc3ccccc23)OC1=O` (centres undefined), inhibition was half-maximal at 5 µM (IC50).

`O=C(O)CC(O)CCC(=O)c1cccc(O)c1C(=O)c1c(C(=O)O)c(O)cc2c1C(=O)c1c(O)cccc1C2=O` (centres undefined) [MUMBAISTATIN]: the IC50 was determined as 0.005 µM.

`COc1cc2c(c(CSc3ccccc3)c1C(=O)O)C(=O)c1c(O)cccc1C2=O`: the IC50 was 50 µM.

As to `CCCCCC/C=C/c1c(C(=O)O)c(OC)cc2c1C(=O)c1c(O)cccc1C2=O`, half-maximal inhibition (IC50) was put at 50 µM.

On to `CCC(C)CCc1c(C(=O)O)c(O)cc2c1C(=O)c1c(O)cccc1C2=O` (centres undefined), for which the IC50 was 200 µM.

As to `COc1cc2c(c(/C=C/c3ccccc3)c1C(=O)O)C(=O)c1c(O)cccc1C2=O`, the IC50 came to 2.5 µM.

Take `C=CCCOc1ccccc1/C=C/c1c(C(=O)O)c(OC)cc2c1C(=O)c1c(OC)cccc1C2=O`: the midpoint of inhibition, the IC50, lay at 20 µM.

In turn, `CC/C=C/c1c(C(=O)O)c(OC)cc2c1C(=O)c1c(O)cccc1C2=O` registered an IC50 of 12.5 µM.

Compound `C=C(c1cccc(O)c1C(=O)O)c1c(O)cccc1C(CCCCC)OC` (centres undefined) yielded an IC50 of 50 µM.

`COc1cc2c(c(/C=C/c3cccc4ccccc34)c1C(=O)O)C(=O)c1c(O)cccc1C2=O`: the IC50 is 2.5 µM.

`CCCCc1c(C(=O)O)c(O)cc2c1C(=O)c1c(O)cccc1C2=O` registered an IC50 of 100 µM.

Values taken from ChEMBL document CHEMBL1149597, “Structure-activity relationships of semisynthetic mumbaistatin analogs” (Bioorg Med Chem, 2007).
